Test results published in patent US20160102074A1, “SUBSTITUTED AMIDE COMPOUNDS” (PFIZER INC., priority 2014, published 2016).

Key:
human PCSK9 [1] = assay: PCSK9 AlphaLISA assay, PCSK9 lowering in WT7 cells; details: WT7 cells (Huh7 stably over-expressing human PCSK9), secreted PCSK9 by AlphaLISA, overnight incubation (16-24 h), top concentration 20 μM; read-out: Cell Based PCSK9 IC50
Excerpt: PCSK9 Lowering in WT7 Cells
An in-vitro AlphaLISA assay (Perkin Elmer) was developed in order to quantitate the level of PCSK9 secreted into the cell culture media following compound treatment. To detect and measure PCSK9 protein a mouse monoclonal anti-human PCSK9 antibody was coupled to AlphaLISA acceptor beads by an external vendor (Perkin Elmer) and a second rabbit monoclonal anti-human PCSK9 antibody with an epitope distinct from that of the acceptor beads was biotinylated using the EZ link NHS-LC-LC-Biotin kit (Life Technologies #21338). Streptavidin coated-donor beads (Perkin Elmer) are also included in the assay mixture which then binds the biotinylated anti-PCSK9 antibody and in the presence of PCSK9 this donor complex and acceptor beads are brought into close proximity. Upon excitation of the donor beads at 680 nm singlet oxygen molecules are released that trigger an energy transfer cascade within the acceptor beads resolving as a single peak of light emitted at 615 nm. The ability of compound to modulate PCSK9 protein levels in conditioned media by AlphaLISA was assessed in the human hepatocellular carcinoma cell line Huh7, stably over-expressing human PCSK9. This cell line, termed WT7, was established by transfecting Huh7 cells with an in-house modified pcDNA 3.1 (+) Zeo expression vector (Life Technologies) containing the full-length human PCSK9 sequence (NCBI reference identifier, NM_174936.3, where coding sequence start annotated at position 363) and a c-terminal V5 and 6×-His tag. Following plasmid transfection the stable WT7 clone was identified and maintained under Zeocin selection. Compound screening was performed in 384-well plates where WT7 cells were plated at a density of 7500 cells per well in 20 μL of tissue culture media containing compound in an eleven point, 0.5 log dilution format at a high treatment concentration of 20 μM in a final volume of 0.5% DMSO. In additional to these test compound conditions each screening plate also included wells that contained 20 μM puromycin as a positive assay control defined as high percent effect, HPE, as well as wells containing media in 0.5% DMSO as a negative treatment control defined as zero percent effect, ZPE. After overnight compound incubation (16-24 h) the tissue culture media was collected and an aliquot from each sample was transferred to individual wells of a 384-well white Optiplate (Perkin Elmer). The coupled antibodies and donor beads were added to the assay plates in a buffer composed of 30 mM Tris pH 7.4, 0.02% Tween-20 and 0.02% Casein. Anti-PCSK9 acceptor beads (final concentration of 10 μg/mL) and anti-PCSK9 biotinylated antibody (final concentration of 3 nM) were added and incubated for 30 minutes at room temperature followed by the addition of the streptavidin donor beads (final concentration 40 μg/mL) for an additional 60 minutes. Additionally a standard curve was generated where AlphaLISA reagents were incubated in wells spiked with recombinant human PCSK9 diluted in tissue culture media from 5000 ng/mL to 0.6 ng/mL. Following incubation with AlphaLISA reagents plates were read on an EnVision (Perkin Elmer) plate reader at an excitation wavelength of […] and emission/detection wavelength of […]. To determine compound IC50 the data for HPEand ZPEcontrol wells were first analyzed and the mean, standard deviation and Z prime calculated for each plate. The test compound data were converted into percent effect, using the ZPE and HPE controls as 0% and 100% activity, respectively. The equation used for converting each well reading into percent effect was:
IC50 was then calculated and reported as the midpoint in the percent effect curve in molar units and the values are reported under the Cell Based PCSK9 IC50 (μM) column header within Table 2 Biological Data. […]

human PCSK9 [2] = assay: Cell Free PCSK9 Assay (PCSK9-luciferase mRNA translation in HeLa lysate); type: biochemical; details: PCSK9-luciferase RNA, 30° C. for 45 minutes, top concentration 100 μM
Method: As defined herein inhibition of translation of PCSK9 mRNA to PCSK9 protein is determined by the “Cell Free PCSK9 Assay” provided herein in the specification. This “Cell Free PCSK9 Assay” is specific to the production of PCSK9 protein from PCSK9 mRNA and therefore detects inhibitors of this translational process rather than other mechanisms by which PCSK9 protein may be reduced.
In order to eliminate the permeability barrier inherent to the WT7 cell-based assays a cell-free system was also established to assess compound activitiy. A sequence containing the full length human PCSK9 (NCBI reference identifier, NM_174936.3, where coding sequence start annotated at position 363) along with 84 additional 3′ nucleotides, comprising a V5 tag and polylinker followed by an in frame modified firefly luciferase reporter (corresponding to nucleotide positions 283-1929 of pGL3, GenBank reference identifier JN542721.1) was cloned into the pT7CFE1 expression vector (ThermoScientific). The construct was then in-vitro transcribed using the MEGAscript T7 Kit (Life Technologies) and RNA subsequently purified incorporating the MEGAclear Kit (Life Technologies) according to manufacturer's protocols. HeLa cell lysates were prepared following the protocols described by Mikami (reference is Cell-Free Protein Synthesis Systems with Extracts from Cultured Human Cells, S. Mikami, T. Kobayashi and H. Imataka; from Methods in Molecular Biology, vol. 607, pages 43-52, Y. Endo et al. (eds.), Humana Press, 2010) with the following modifications. Cells were grown in a 20 L volume of CD293 medium (Gibco 11765-054) with Glutamax increased to 4 mM, penicillin at 100 U/mL and other additions as previously described by Mikami. Growth was in a 50 L wavebag at a rocker speed of 25 rpm and angle 6.1 with 5% CO2 and 0.2 LPM flow rate with cells harvested at a density of 2-2.5e6/mL. Lysates additionally contained 1 tablet of Roche cOmplete-EDTA protease inhibitors per 50 mL with tris(2-carboxyethyl)phosphine (Biovectra) substituted for dithiothreitol, and were clarified by an additional final centrifugation at 10,000 rpm in a Sorvall SS34 rotor at 4° C. for 10 minutes. Compound screening was performed in 384-well plates in an eleven point, 0.5 log dilution format at a top test compound concentration of 100 μM in a final volume of 0.5% DMSO. In additional to these test compound conditions each screening plate also included wells that contained 100 μM of compound example 16 (as depicted in WO2014170786; N-(3-chloropyridin-2-yl)-N-[(3R)-piperidin-3-yl]-4-(3H-[1,2,3]triazolo[4,5-b]pyridin-3-yl)benzamide) as a positive assay control defined as high percent effect, HPE, as well as wells containing media in 0.5% DMSO as a negative treatment control defined as zero percent effect, ZPE. Compounds were incubated at 30° C. for 45 minutes in a solution containing 0.1 μg of purified, in-vitro transcribed RNA together with the cell-free reaction mixture (consisting of 1.6 mM Mg and 112 mM K salts, 4.6 mM tris(2-carboxyethyl)phosphine (Biovectra), 5.0 μL HeLa lysate, 0.2 μL RNAsin (Promega) and 1.0 μL energy mix (containing 1.25 mM ATP (Sigma), 0.12 mM GTP (Sigma), 20 mM creatine phosphate (Santa Cruz), 60 μg/mL creatine phosphokinase (Sigma), 90 μg/mL tRNA (Sigma) and the 20 amino acids (Life Technologies) at final concentrations described by Mikami) and brought up in water to a final volume of 10 μL in water. Upon assay completion 1 μL from each reaction solution was removed and transferred to a second 384-well Optiplate (Perkin Elmer) containing 24 μL of SteadyGlo (Promega) and signal intensity was measured on the Envision (Perkin Elmer) using the enhanced luminescence protocol. To determine compound IC50 the data for HPE and ZPE control wells were first analyzed and the mean, standard deviation and Z prime calculated for each plate. The test compound data were converted into percent effect, using the ZPE and HPE controls as 0% and 100% activity, respectively, applying Equation 1 above. […]

| Compound | IC50 (human PCSK9 [1]) | IC50 (human PCSK9 [2]) |
| --- | --- | --- |
| Cc1cccnc1N(C(=O)c1ccc(-c2cnn(C)c2-c2nn[nH]n2)cn1)[C@@H]1CCCNC1 [Example 1, N-(3-methylpyridin-2-yl)-5-[1-methyl-5-(2H-tetrazol-5-yl)-1H-pyrazol-4-yl]-N-[(3R)-piperidin-3-yl]pyridine-2-carboxamide] | > 20 µM | 5.8 µM |
| CCOC(=O)O[C@H](C)n1nnnc1-c1c(-c2ccc(C(=O)N(c3ncccc3Cl)[C@@H]3CCCNC3)cc2)cnn1C [Example 12, ethyl (R)-1-{5-[1-methyl-4-(4-{(3-chloropyridin-2-yl)[(3R)-piperidin-3-yl]carbamoyl}phenyl)-1H-pyrazol-5-yl]-1H-tetrazol-1-yl}ethyl carbonate] | 17.3 µM | 15.4 µM |
| Cn1ncc(-c2ccc(C(=O)N(c3ncccc3Cl)[C@@H]3CCCNC3)nc2)c1-c1nn[nH]n1 [Example 2, N-(3-chloropyridin-2-yl)-5-[1-methyl-5-(2H-tetrazol-5-yl)-1H-pyrazol-4-yl]-N-[(3R)-piperidin-3-yl]pyridine-2-carboxamide] | > 20 µM | 10.5 µM |
| Cc1cccnc1N(C(=O)c1ccc(-c2cnn(C)c2-c2nn[nH]n2)c(F)c1)[C@@H]1CCCNC1 [Example 4, N-(3-methylpyridin-2-yl)-3-fluoro-4-[1-methyl-5-(2H-tetrazol-5-yl)-1H-pyrazol-4-yl]-N-[(3R)-piperidin-3-yl]benzamide] | > 20 µM | 15.3 µM |
